Consider eight compounds from DBAASP.

The MIC is the lowest concentration found to suppress growth. High values mean a less susceptible organism, low ones a more susceptible organism.

Common to all, as to assay: ≥ marks a high value that may be exact or a test limit, other limits are often not marked, values filed in µg/mL are converted to µM
The test system of experiment [1] is Pseudomonas aeruginosa ATCC 27853.
Experiment [2] concerns Staphylococcus epidermidis ATCC 35984.
The subject of experiment [3] is Staphylococcus aureus ATCC 25923.
The test system of experiment [4] is Staphylococcus aureus ATCC 33591.
The test system of experiment [5] is Pectobacterium carotovorum.
For experiment [6], the system named is Bacillus subtilis.
For experiment [7], the system named is Bacillus subtilis 168.
For experiment [8], the system named is Escherichia coli B.
The test system of experiment [9] is Staphylococcus aureus 1.
Experiment [10] deals with Staphylococcus aureus.
For experiment [11], the system named is Staphylococcus aureus ATCC 43300.
The test system of experiment [12] is Micrococcus luteus CCM 144.
Experiment [13] deals with Pseudomonas aeruginosa.
Experiment [14] has as its system Candida albicans F7-39/IDE99.
Experiment [15] has as its system Staphylococcus epidermidis.
Experiment [16] concerns Pseudomonas aeruginosa PAO1.
Experiment [17] concerns Candida albicans ATCC 64550.
In experiment [18] the test system is Escherichia coli C600.
Experiment [19] relates to Staphylococcus aureus 209P.
For experiment [20], the system named is Enterococcus faecalis ATCC 29212.
The subject of experiment [21] is Vibrio cholerae.
Experiment [22] deals with Escherichia coli MG1655.
Experiment [23] deals with Bacillus subtilis MTCC 14416.
The test system of experiment [24] is Staphylococcus aureus MTCC 9542.

Converted amounts (≈) assume the structure as drawn.

As for `CC(C)C[C@H](NC(=O)[C@H](Cc1ccccc1)NC(=O)[C@@H](N)CCCCN)C(=O)N[C@@H](CCCCN)C(=O)N[C@@H](CCCCN)C(=O)N[C@@H](C)C(=O)N[C@@H](CCCCN)C(=O)N[C@@H](CCCCN)C(=O)N[C@@H](Cc1ccccc1)C(=O)NCC(=O)N[C@@H](CCCCN)C(=O)N[C@@H](C)C(N)=O` [KFLKKAKKFGKA], the MIC in [1] was 367 µM (≈ 512 µg/mL); in [2] it was no less than 367 µM; in experiment [3], greater than 367 µM; in experiment [4], no less than 367 µM.

Regarding `CC[C@H](C)[C@H](NC(=O)[C@H](CO)NC(=O)[C@H](CCCN=C(N)N)NC(=O)CNC(=O)[C@H](CCC(=O)O)NC(=O)[C@H](CC(C)C)NC(=O)[C@H](CCC(=O)O)NC(=O)[C@H](CC(C)C)NC(=O)[C@H](CO)NC(=O)[C@H](CC(=O)O)NC(=O)[C@H](Cc1ccc(O)cc1)NC(=O)[C@H](CCCN=C(N)N)NC(=O)[C@H](Cc1ccc(O)cc1)NC(=O)CNC(=O)[C@H](Cc1ccccc1)NC(=O)[C@@H](N)CCCCN)C(=O)N[C@@H](CO)C(=O)N[C@@H](CCCN=C(N)N)C(=O)N[C@H](C(=O)N[C@@H](CC(=O)O)C(=O)N[C@@H](CCC(=O)O)C(=O)N[C@@H](CC(C)C)C(=O)N[C@H](C(=O)N[C@@H](CCC(N)=O)C(=O)N[C@@H](CCC(N)=O)C(=O)N[C@@H](CCCN=C(N)N)C(=O)O)[C@@H](C)CC)[C@@H](C)CC` [KFGYRYDSLELEGRSISRIDELIQQR], the minimal inhibitory concentration (MIC) stood at 0.632 µM (≈ 2.01 µg/mL) in [5] and 2.45 µM (≈ 7.77 µg/mL) in [6].

On to `CC(C)C[C@H](NC(=O)[C@H](Cc1ccccc1)NC(=O)[C@H](CCCCN)NC(=O)CN)C(=O)N[C@@H](CCCCN)C(=O)N[C@@H](CCCCN)C(=O)N[C@@H](C)C(=O)N[C@@H](CCCCN)C(=O)N[C@@H](CCCCN)C(=O)N[C@@H](Cc1ccccc1)C(=O)NCC(=O)N[C@@H](CCCCN)C(N)=O` [GKFLKKAKKFGK], for which the MIC was greater than 371 µM in experiment [1], no less than 262 µM in experiment [2], greater than 371 µM in experiment [3] and no less than 371 µM in experiment [4].

Regarding `CC[C@H](C)[C@H](NC(=O)CN)C(=O)N[C@@H](CCSC)C(=O)N[C@@H](CO)C(=O)N[C@@H](CO)C(=O)N[C@@H](CC(C)C)C(=O)N[C@@H](CCSC)C(=O)N[C@@H](CCCCN)C(=O)N[C@@H](CCCCN)C(=O)N[C@@H](CC(C)C)C(=O)N[C@@H](C)C(=O)N[C@@H](C)C(=O)N[C@@H](Cc1cnc[nH]1)C(=O)N[C@H](C(=O)N[C@@H](CCCCN)C(=O)N[C@@H](CCCCN)C(N)=O)[C@@H](C)CC` [GIMSSLMKKLAAHIKK], the MIC in experiment [1] was 23 µM (≈ 40.4 µg/mL); in experiment [7], 7 µM (≈ 12.3 µg/mL); in [8], 20 µM (≈ 35.1 µg/mL); in experiment [9], no less than 77 µM; in experiment [10], 90 µM (≈ 158 µg/mL); in experiment [11] it was 85 µM (≈ 149 µg/mL). Also, the minimum inhibitory concentration (MIC) came to 3 µM (≈ 5.27 µg/mL) in experiment [12], 46 µM (≈ 80.7 µg/mL) in experiment [13], 5 µM (≈ 8.78 µg/mL) in [14] and 11 µM (≈ 19.3 µg/mL) in experiment [15].

Take `CC[C@H](C)[C@H](NC(=O)CN)C(=O)N[C@@H](CC(C)C)C(=O)N[C@@H](CO)C(=O)N[C@@H](CO)C(=O)N[C@@H](Cc1c[nH]c2ccccc12)C(=O)N[C@@H](CC(C)C)C(=O)N[C@@H](CCCCN)C(=O)N[C@@H](CCCCN)C(=O)N[C@@H](CC(C)C)C(=O)N[C@@H](CCCCN)C(=O)N[C@@H](CCCCN)C(=O)N[C@H](C(=O)N[C@H](C(=O)N[C@@H](C)C(=O)N[C@@H](CCCCN)C(N)=O)[C@@H](C)CC)[C@@H](C)CC` [GILSSWLKKLKKIIAK]: the minimal inhibitory concentration (MIC) in experiment [1] worked out at 4 µM (≈ 7.3 µg/mL); in experiment [7], 7 µM (≈ 12.8 µg/mL); in experiment [8] it was 11 µM (≈ 20.1 µg/mL); in [9], 6.6 µM (≈ 12 µg/mL); in [10], 16 µM (≈ 29.2 µg/mL); in experiment [11], 16 µM (≈ 29.2 µg/mL). The MIC came out at 3 µM (≈ 5.48 µg/mL) in experiment [12], 5.9 µM (≈ 10.8 µg/mL) in experiment [13], 17 µM (≈ 31 µg/mL) in experiment [14] and 2 µM (≈ 3.65 µg/mL) in experiment [15].

For `CC(C)[C@H](NC(=O)[C@H](CCCN=C(N)N)NC(=O)[C@@H](NC(=O)[C@H](CCCN=C(N)N)NC(=O)[C@H](Cc1c[nH]c2ccccc12)NC(=O)[C@H](CCCN=C(N)N)NC(=O)[C@@H](N)Cc1c[nH]c2ccccc12)C(C)C)C(=O)N[C@@H](Cc1c[nH]c2ccccc12)C(=O)N[C@@H](CCCN=C(N)N)C(N)=O` [WRWRVRVWR], the results for the MIC in experiment [16] and in experiment [17] were 1.79 µM (≈ 2.5 µg/mL) and no less than 100 µM, respectively.

Consider `CC(C)[C@@H]1NC(=O)CNC(=O)[C@H](CCCN=C(N)N)NC(=O)[C@H](C(C)C)NC(=O)[C@H](CCCN=C(N)N)NC(=O)[C@H](C)NC(=O)[C@H](CCCN=C(N)N)NC(=O)[C@H](C(C)C)NC(=O)[C@@H](NC(=O)[C@H](Cc2c[nH]c3ccccc23)NC(=O)[C@@H](N)CCCN=C(N)N)CSSC[C@@H](C(=O)N[C@@H](Cc2c[nH]c3ccccc23)C(=O)O)NC(=O)[C@H](CCCN=C(N)N)NC(=O)[C@H](CCCN=C(N)N)NC(=O)[C@H](Cc2ccc(O)cc2)NC(=O)[C@H](CCCN=C(N)N)NC1=O` [RWCVRARVRGVRYRRCW], for which the minimal inhibitory concentration (MIC) in [16] was 12.5 µM (≈ 28.5 µg/mL); in [18], 1.56 µM (≈ 3.55 µg/mL); in [19], 1.56 µM (≈ 3.55 µg/mL).

In the case of `CC[C@H](C)[C@H](NC(=O)[C@H](CCCCN)NC(=O)[C@H](CS)NC(=O)[C@H](CC(C)C)NC(=O)[C@@H](NC(=O)[C@H](CCC(N)=O)NC(=O)[C@@H]1CCCN1C(=O)[C@H](CC(C)C)NC(=O)[C@H](Cc1ccccc1)NC(=O)[C@H](CC(N)=O)NC(=O)[C@H](C)NC(=O)[C@H](C)NC(=O)[C@H](CC(C)C)NC(=O)CNC(=O)[C@H](C)NC(=O)[C@@H](NC(=O)[C@@H](N)CC(C)C)[C@@H](C)CC)[C@@H](C)CC)C(=O)N[C@@H](C)C(=O)N[C@@H](CCCN=C(N)N)C(=O)N[C@@H](CCCCN)C(=O)N[C@@H](CS)C(N)=O` [LIAGLAANFLPQILCKIARKC], the MIC in [1] is greater than 44.3 µM; in experiment [20], 44.3 µM (≈ 100 µg/mL); in [21] it was 11.1 µM (≈ 25 µg/mL); in experiment [11], greater than 44.3 µM; in [22] it was 11.1 µM (≈ 25 µg/mL); in experiment [23] it was 22.2 µM (≈ 50 µg/mL). For the same compound, the MIC in [24] was no less than 44.3 µM.
